Laboratory results as given in article PMC3913857, “Regorafenib in Japanese patients with solid tumors: phase I study of safety, efficacy, and pharmacokinetics” (Investigational New Drugs, 2013).
Read-outs that look alike come from different tables or passages of the source. Marks after values point to notes of the source that are not given here.

Tests used:
clinical = assay: clinical; design: species or system Japanese patients; conditions: in vivo; for AUC from 0 to 24 h of metabolite as share of regorafenib / t 1/2 (terminal half life) / t max / AUC / AUC0–24 / C max / AUC(0-t) / Cmax / half-life: human
Experimental: Patients who provided at least one evaluable pharmacokinetic sample were eligible for pharmacokinetic analyses.
Plasma concentrations of regorafenib and its metabolites were determined by fully validated liquid chromatography–tandem mass spectrometry after protein precipitation with acetonitrile/ammonium acetate buffer containing the internal standards [^2H3 ^15N] BAY 73-4506 (for regorafenib), [^2H3 ^15N] […] BAY 81-8752 (for the M5 metabolite).

[1] = Safety: adverse events (NCI CTCAE v3.0) and laboratory toxicities, Japan phase I study; design: species or system Japanese patients; conditions: in vivo
Experimental: (§1) All patients who received at least one dose of regorafenib were eligible for safety analyses and were included in the efficacy analyses if they also had post-baseline efficacy data. For the safety analysis, physical examination, vital signs, use of concomitant medications, and laboratory test data were reported, and patients were routinely monitored for adverse events, which were recorded with severity and relationship to study medication according to the National Cancer Institute Common Terminology Criteria for Adverse Events version 3.0. Tumor response was assessed every 8 weeks for the first 6 cycles and every 12 weeks after Cycle 6 by Response Evaluation Criteria in Solid Tumors version 1.0, using the same imaging techniques and methods as at baseline. The response rate was defined as the proportion of patients whose best response was a confirmed partial or complete response.
Unacceptable toxicity was defined as any of the following events occurring during Cycle 1 and considered to be related to study drug: grade 4 neutropenia (for ≥7 days); febrile neutropenia with grade 4 neutropenia and fever; grade 4 thrombocytopenia; grade 3 or 4 nonhematologic toxicities (excluding events considered to be tolerable by the investigator). If two of the first three or three of the first six patients treated with regorafenib experienced unacceptable toxicities during Cycle 1, the safety data were reviewed by the Data Monitoring Committee, which considered whether protocol amendments were needed to address any safety concerns before subsequent patients were treated.

[2] = system: treatment-refractory advanced solid tumors; assay: Tumor response (RECIST version 1.0), Japan phase I study; format: in vivo, Japanese patients
Experimental: as §1

[3] = design: method as in PMID 22421192; conditions: European phase I study, 160 mg cohort only, n = 12, cited from earlier work
[4] = design: method as in ref 7 = [7]; 7. Eisen T, Joenssu H, Nathan P Harper P, Wojtukiewicz M, Nicholson S, Bahl A, Tomczak P, Wagner A, Quinn D (2011) Phase II trial of the oral multi kinase inhibitor regorafenib (BAY 73-4506) as first-; conditions: European phase II study, advanced renal cell carcinoma, n = 49, cited from earlier work
cytochrome p450 3A4 = system: cytochrome p450 3A4; design: method as in ref 11 = [11]; 11. Bayer HealthCare AG, data on file; conditions: in vitro; cited from earlier work
[5] = system: UDP-glucuronosyltransferase 1A9; design: method as in ref 11 = [11]; 11. Bayer HealthCare AG, data on file; conditions: in vitro, glucuronidation; cited from earlier work
[6] = design: method as in PMID 22421192, PMID 22568966; conditions: European phase I and II studies; cited from earlier work
[7] = any time after start of study treatment

CNC(=O)c1cc(Oc2ccc(NC(=O)Nc3ccc(Cl)c(C(F)(F)F)c3)c(F)c2)cc[n+]1[O-] [M2]
AUC from 0 to 24 h of metabolite as share of regorafenib (clinical): 47.3%
t 1/2 (terminal half life) (clinical): 29.5 (24.1) h
t max (clinical): 4.3 (0.6–47.9) h
AUC (clinical; po, 160 mg): 7,820.6 (301.2) μg.h/L
AUC0–24 (clinical; po, 160 mg): 3,697.2 (340.5) μg.h/L
C max (clinical; po, 160 mg): 273.3 (388.9) μg/L
t 1/2 (terminal half life) (clinical; po, 160 mg): 24.8 (27.7) h
Change in t max and t 1/2 between single dosing and 21-day multiple dosing (clinical): no significant change

NC(=O)c1cc(Oc2ccc(NC(=O)Nc3ccc(Cl)c(C(F)(F)F)c3)c(F)c2)cc[n+]1[O-] [M5]
AUC from 0 to 24 h of metabolite as share of regorafenib (clinical): 21.5%
t 1/2 (terminal half life) (clinical): 57.5 (33.7) h
t max (clinical): 35.6 (0.6–73.2) h
AUC (clinical; po, 160 mg): 3,441.8 (112.0)^a μg.h/L
AUC0–24 (clinical; po, 160 mg): 380.5/164.2 (112.0)^a μg.h/L
C max (clinical; po, 160 mg): 31.1 (167.3)^a μg/L
t max (clinical; po, 160 mg): 24.0 (2.8–71.3)^a h
Change in t max and t 1/2 between single dosing and 21-day multiple dosing (clinical): no significant change

CNC(=O)c1cc(Oc2ccc(NC(=O)Nc3ccc(Cl)c(C(F)(F)F)c3)c(F)c2)ccn1 [Regorafenib]
AUC (clinical; po, 160 mg): 34600 ng·h/mL
AUC(0-t) (clinical; po, 160 mg): 16400 ng·h/mL
Cmax (clinical; po, 160 mg): 1370 ng/mL
t 1/2 (terminal half life) (clinical; po, 160 mg): 27.4 (29.9) h
t max (clinical; po, 160 mg): 4 h
half-life (clinical; po, 160 mg, t 1/2 (terminal half life)): ~27 h
AUC(0-t) (clinical; Cycle 1 day 21, regorafenib 160 mg once daily for 21 days, N = 12, geometric mean (% coefficient of variance), read-out: AUC0–24): 33000 ng·h/mL
Cmax (clinical; Cycle 1 day 21, regorafenib 160 mg once daily for 21 days, N = 12, geometric mean (% coefficient of variance), read-out: C max): 2520 ng/mL
half-life (clinical; Cycle 1 day 21, regorafenib 160 mg once daily for 21 days, N = 12, geometric mean (% coefficient of variance), read-out: t 1/2 (terminal half life) (converted)): 30.4 h
t max (clinical; Cycle 1 day 21, regorafenib 160 mg once daily for 21 days, N = 12, median (range), read-out: t max): 3.6 h
Change in t max and t 1/2 between single dosing and 21-day multiple dosing (clinical): no significant change
Biochemical abnormality: alkaline phosphatase (ALP) elevation ([1]; human): 93%
Biochemical abnormality: hypoalbuminemia ([1]; human): 93%
Biochemical abnormality: hypophosphatemia ([1]; human): 80%
Biochemical abnormality: proteinuria ([1]; human): 80%
Biochemical toxicity: ALP elevation, any grade ([1]; human): 14 (93) n (%)
Biochemical toxicity: ALP elevation, grade 3 or 4 ([1]; human): 2 (13) n (%)
Biochemical toxicity: ALT elevation, any grade ([1]; human): 12 (80) n (%)
Biochemical toxicity: ALT elevation, grade 3 or 4 ([1]; human): 3 (20) n (%)
Biochemical toxicity: AST elevation, any grade ([1]; human): 13 (87) n (%)
Biochemical toxicity: AST elevation, grade 3 or 4 ([1]; human): 3 (20) n (%)
Biochemical toxicity: Hypoalbuminemia, any grade ([1]; human): 14 (93) n (%)
Biochemical toxicity: Hypoalbuminemia, grade 3 or 4 ([1]; human): 0 n (%)
Biochemical toxicity: Hypocalcemia, any grade ([1]; human): 9 (60) n (%)
Biochemical toxicity: Hypocalcemia, grade 3 or 4 ([1]; human): 0 n (%)
Biochemical toxicity: Hypophosphatemia, any grade ([1]; human): 12 (80) n (%)
Biochemical toxicity: Hypophosphatemia, grade 3 or 4 ([1]; human): 4 (27) n (%)
Biochemical toxicity: Proteinuria, grade 3 or 4 ([1]; human): 1 (7) n (%)
Incidence of biochemical toxicities: ALT, grade 3/4 ([1]; human): 20%
Incidence of biochemical toxicities: AST, all grades ([1]; human): 87%
Incidence of biochemical toxicities: AST, grade 3/4 ([1]; human): 20%
Patients with at least one drug-related treatment-emergent adverse event of any grade ([1]; human): 15 patients
Treatment discontinuation for adverse event: anemia ([1]; human): 1 n
Treatment discontinuation for adverse event: liver enzyme elevation ([1]; human): 1 n
Grade of drug-related adverse event resulting in treatment reduction or interruption: ALT elevation ([1]; human, 1 cycle): 3
Grade of drug-related adverse event resulting in treatment reduction or interruption: AST elevation ([1]; human, 1 cycle): 3
Grade of drug-related adverse event resulting in treatment reduction or interruption: Hypertension ([1]; human, 1 cycle): 2
Grade of drug-related adverse event resulting in treatment reduction or interruption: Leukopenia ([1]; human, 1 cycle): 2
Grade of drug-related adverse event resulting in treatment reduction or interruption: Neutropenia ([1]; human, 1 cycle): 3
Grade of drug-related adverse event resulting in treatment reduction or interruption: Thrombocytopenia ([1]; human, 1 cycle): 2
Grade of drug-related adverse event resulting in treatment reduction or interruption: ALT elevation ([1]; human, 2 cycle): 4
Grade of drug-related adverse event resulting in treatment reduction or interruption: Hand–foot skin reaction ([1]; human, 2 cycle): 3
Grade of drug-related adverse event resulting in treatment reduction or interruption: Dental pulpitis ([1]; human, 3 cycle): 2
Grade of drug-related adverse event resulting in treatment reduction or interruption: Diarrhea ([1]; human, 3 cycle): 3
Grade of drug-related adverse event resulting in treatment reduction or interruption: Hand–foot skin reaction ([1]; human, 3 cycle): 1
Grade of drug-related adverse event resulting in treatment reduction or interruption: Hand–foot skin reaction (event cell empty, from line above) ([1]; human, 3 cycle): 1
Grade of drug-related adverse event resulting in treatment reduction or interruption: Hand–foot skin reaction ([1]; human, 7 cycle): 3
Grade of drug-related adverse event resulting in treatment reduction or interruption: Hand–foot skin reaction (event cell empty, from line above) ([1]; human, 9 cycle): 1
Grade of drug-related adverse event resulting in treatment reduction or interruption: Proteinuria ([1]; human, 9 cycle): 3
Grade of drug-related adverse event resulting in treatment reduction or interruption: Proteinuria ([1]; human, 10 cycle): 2
Grade of drug-related adverse event resulting in treatment reduction or interruption: Back pain ([1]; human, 11 cycle): 3
Grade of drug-related adverse event resulting in treatment reduction or interruption: Gingivitis ([1]; human, 18 cycle): 2
Changes in vital signs or electrocardiogram findings [1]: No clear changes
Cycle delay (start of next cycle delayed longer than 7 days) because of adverse events [1]: four
Dose reduction because of adverse events [1]: six
Drug-related adverse events leading to dose interruption or dose reduction [1]: eight
Interruption of regorafenib during daily treatment because of adverse events [1]: seven
Serious adverse events [1]: six
Serious adverse events deemed treatment-related [1]: three
Treatment-related deaths [1]: No treatment-related deaths
Complete response ([2]; 15 patients): no patient
Overall response rate ([2]; 15 patients, 95 % confidence interval 0.2–31.9 %): 7%
Median time to progression ([2]; 95 % confidence interval 1.9–12.4 months): 3.7 months
Duration of response (partial response) ([2]; one patient, pancreatic neuroendocrine tumor): 10.5 months
Incidence of biochemical toxicities: ALT, all grades [3, 7]: 75%
Incidence of biochemical toxicities: ALT, grade 3/4 [3, 7]: 25%
Incidence of biochemical toxicities: AST, all grades [3, 7]: 75%
Incidence of biochemical toxicities: AST, grade 3/4 [3, 7]: 25%
Adverse events: Alopecia, all grades [3]: 33%
Adverse events: Alopecia, grade 3/4 [3]: 0%
Adverse events: Anorexia, all grades [3]: 50%
Adverse events: Anorexia, grade 3/4 [3]: 8%
Adverse events: Diarrhea, all grades [3]: 50%
Adverse events: Diarrhea, grade 3/4 [3]: 17%
Adverse events: Fatigue, all grades [3]: 17%
Adverse events: Fatigue, grade 3/4 [3]: 0%
Adverse events: Hand–foot skin reaction, all grades [3]: 67%
Adverse events: Hand–foot skin reaction, grade 3/4 [3]: 25%
Adverse events: Hypertension, all grades [3]: 50%
Adverse events: Hypertension, grade 3/4 [3]: 17%
Adverse events: Rash, all grades [3]: 50%
Adverse events: Rash, grade 3/4 [3]: 8%
Adverse events: Voice changes/hoarseness, all grades [3]: 42%
Adverse events: Voice changes/hoarseness, grade 3/4 [3]: 0%
Incidence of biochemical toxicities: ALT, all grades [4, 7]: 39%
Incidence of biochemical toxicities: ALT, grade 3/4 [4, 7]: 2%
Incidence of biochemical toxicities: AST, all grades [4, 7]: 41%
Incidence of biochemical toxicities: AST, grade 3/4 [4, 7]: 2%
Adverse events: Alopecia, all grades ([4]; untreated): 45%
Adverse events: Alopecia, grade 3/4 ([4]; untreated): 0%
Adverse events: Anorexia, all grades ([4]; untreated): 29%
Adverse events: Anorexia, grade 3/4 ([4]; untreated): 6%
Adverse events: Diarrhea, all grades ([4]; untreated): 45%
Adverse events: Diarrhea, grade 3/4 ([4]; untreated): 10%
Adverse events: Fatigue, all grades ([4]; untreated): 53%
Adverse events: Fatigue, grade 3/4 ([4]; untreated): 8%
Adverse events: Hand–foot skin reaction, all grades ([4]; untreated): 71%
Adverse events: Hand–foot skin reaction, grade 3/4 ([4]; untreated): 33%
Adverse events: Hypertension, all grades ([4]; untreated): 49%
Adverse events: Hypertension, grade 3/4 ([4]; untreated): 6%
Adverse events: Rash, all grades ([4]; untreated): 39%
Adverse events: Rash, grade 3/4 ([4]; untreated): 6%
Adverse events: Voice changes/hoarseness, all grades ([4]; untreated): 35%
Adverse events: Voice changes/hoarseness, grade 3/4 ([4]; untreated): 0%
Metabolizing enzyme (cytochrome p450 3A4): metabolized by cytochrome p450 3A4
Metabolizing enzyme [5]: UDP-glucuronosyltransferase 1A9 glucuronidation
Frequency of hand–foot skin reaction [6]: 67–71%
